The text below walks through data of US20250082573A1, “COMPOSITIONS AND METHODS FOR DELIVERY OF OCULAR THERAPEUTICS” (The Board of Trustees of the Leland Stanford Junior …, priority 2023, published 2025).

For data set [1] the following is noted: following IV administration; cited from earlier work.
A short description of data set [2]: VH mimic depot formation and model cargo release assay. In kind it is physicochemical. As to conditions: cargo in PNP hydrogel vs PBS bolus, 50 μL into VH mimic; fluorescein 0.25 mg mL^−1, albumin-FITC 10 mg mL^−1. Here is the method:
This example describes PNP-2-10 hydrogel depot formation and model cargo release in a VH mimic. The PNP-2-10 hydrogel was prepared as described in Example 1. The present technology is directed to ITV administration of PNP hydrogels in the sensitive environment of the eye. To better visualize and understand how the PNP hydrogels would behave in the VH, depot formation and model cargo release were analyzed in a VH mimic composed of agar and hyaluronic acid (HA). […]
To prepare the VH mimic release assay, 50 μL of PNP hydrogel or PBS loaded with either 0.25 mg mL^−1 fluorescein or 10 mg mL^−1 albumin-FITC (MW˜66 kDa, mol FITC:mol albumin=14) was injected through a 30-gauge needle into a cuvette containing a VH mimic. […] Dye release was quantified using ImageJ software. Images were separated into red, blue, and green channels and the intensity in the green channel within a region inside the hydrogel depot or initial PBS injection site was measured for each time point, denoted Itn. […] The fraction of dye remaining in the gel depot at the final time point was determined by comparing the change in background intensity from times t0 to tplateau for PBS and gel samples:
The percent of dye retained in the gel or PBS injection site at each time point tn was determined by normalizing the intensity as
where tf is the final time point measured and C is a constant defined by […]

Consider `CCNC(=O)CCC/C=C\C[C@@H]1[C@@H](/C=C/[C@@H](O)CCc2ccccc2)[C@H](O)C[C@@H]1O` [bimatoprost], for which the elimination half-life in data set [1] was 45 min.
As to “albumin-FITC: a model protein, MW˜66 kDa, mol FITC:mol albumin=14”, the “increase of effective half-life of retention compared to the control PBS bolus” value in data set [2] is given as “over 3.7 fold”.
